This is an account of results in US12071425B2 (Genentech, Inc., priority 2018, dated 2024).

What is called pIC50 is the IC50 on a negative log10 scale, so that one unit is a factor of ten. A higher pIC50 goes with a low IC50.

Each structure is given as a SMILES string. pIC50: −log10 of the molar value. Counter-ions that a name gives are not always drawn.

For this test, the target named is kinase domain of IRE1 alpha (His-tagged kinase dead construct KR, AA G547-L977, D688N) (Homo sapiens (Human), UniProt O75460, D688N). The test can be described thus: IRE1α TR-FRET competition binding assay. The settings on record: competition with Kinase Tracer 236, 0.1 μM; one hour at room temperature. The method in brief: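 Sf9-expressed kinase-dead KR construct (0.006 μM final) pre-incubated 1 h at 4° C with Eu anti-His antibody (0.002 μM) in HEPES pH 7.5/MgCl2/Brij/DTT buffer; Kinase Tracer 236 (ATP-competitive probe, 0.1 μM final) added with compound. 1 h at room temperature; tracer displacement read by TR-FRET (665/615 nm).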
kinase domain of IRE1 alpha (His-tagged kinase dead construct KR, AA G547-L977, D688N), sequence (O75460 547-977 D688N): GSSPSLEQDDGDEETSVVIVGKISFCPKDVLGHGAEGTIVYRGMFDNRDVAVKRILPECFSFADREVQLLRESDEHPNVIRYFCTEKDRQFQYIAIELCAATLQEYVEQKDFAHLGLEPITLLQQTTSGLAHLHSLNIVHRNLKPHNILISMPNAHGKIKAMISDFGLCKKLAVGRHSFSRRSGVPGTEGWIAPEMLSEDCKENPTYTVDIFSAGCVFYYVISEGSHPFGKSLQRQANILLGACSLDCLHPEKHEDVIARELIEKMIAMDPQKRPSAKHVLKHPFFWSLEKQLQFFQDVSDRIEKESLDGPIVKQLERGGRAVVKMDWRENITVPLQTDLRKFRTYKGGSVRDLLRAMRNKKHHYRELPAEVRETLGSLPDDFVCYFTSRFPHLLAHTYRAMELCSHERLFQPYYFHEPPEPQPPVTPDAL
In general terms: Time-resolved FRET reads energy transfer from a long-lived donor to a nearby acceptor.
Molecule `Cc1c(Oc2ncccc2-c2ccnc(N[C@@H]3CNC[C@@H](F)C3)n2)cc(F)c(NS(=O)(=O)Cc2c(F)cccc2F)c1F` [Compound 293, N-(2,6-Difluoro-4-((3-(2-(((3S,5S)-5-fluoropiperidin-3-yl)amino)pyrimidin-4-yl)pyridin-2-yl)oxy)-3-methylphenyl)-1-(2,6-difluorophenyl)methanesulfonamide] gave a pIC50 of 9.39.
As for `O=S(=O)(Cc1c(F)cccc1F)Nc1c(F)cc(Oc2ncccc2-c2ccnc(N[C@@H]3CNC[C@@H](F)C3)n2)c(F)c1F` [Compound 363, 1-(2,6-Difluorophenyl)-N-[2,3,6-trifluoro-4-[[3-[2-[[(3S,5S)-5-fluoro-3-piperidyl]amino]pyrimidin-4-yl]-2-pyridyl]oxy]phenyl]methanesulfonamide], the figure is 9.70; as for `O=S(=O)(Cc1ccccc1)Nc1c(F)cc(Oc2ncccc2-c2ccnc(NC3CC4CCCN(C4)C3)n2)c(F)c1F` (single isomer, unassigned) [Compound 288, N-(4-((3-(2-((1-azabicyclo[3.3.1]nonan-3-yl)amino)pyrimidin-4-yl)pyridin-2-yl)oxy)-2,3,6-trifluorophenyl)-1-phenylmethanesulfonamide], 8.96.
In turn, `Cc1ccc(CS(=O)(=O)Nc2cc(F)c(Oc3ncccc3-c3ccnc(N[C@@H]4CNC[C@@](C)(F)C4)n3)c(C)c2F)cc1` [Compound 311, N-(2,5-Difluoro-4-((3-(2-(((3S,5S)-5-fluoro-5-methylpiperidin-3-yl)amino)pyrimidin-4-yl)pyridin-2-yl)oxy)-3-methylphenyl)-1-(p-tolyl)methanesulfonamide] gave a negative logarithm of the IC50 (pIC50) of 9.54.
The molecule `O=S(=O)(Cc1cccc(C(F)(F)F)c1)Nc1c(F)cc(Oc2ncccc2-c2ccnc(N[C@@H]3CNC[C@@H](F)C3)n2)c(F)c1F` [Compound 374, N-(2,3,6-Trifluoro-4-((3-(2-(((3S,5S)-5-fluoropiperidin-3-yl)amino)pyrimidin-4-yl)pyridin-2-yl)oxy)phenyl)-1-(3-(trifluoromethyl)phenyl)methanesulfonamide] showed a pIC50 of 9.70.
As for `C[C@H](c1ccccc1)S(=O)(=O)Nc1c(F)cc(Oc2ncccc2-c2ccnc(N[C@@H]3CNC[C@@H](F)C3)n2)c(F)c1F` (single isomer, unassigned) [Compound 388, (*R)-1-phenyl-N-(2,3,6-trifluoro-4-((3-(2-(((3S,5S)-5-fluoropiperidin-3-yl)amino)pyrimidin-4-yl)pyridin-2-yl)oxy)phenyl)ethane-1-sulfonamide], the pIC50 was 9.10.
`CCCS(=O)(=O)Nc1cc(C)c(Oc2ncccc2-c2ccnc(N[C@H]3CC[C@H](N)CC3)n2)c(F)c1` [Compound 118, N-(4-((3-(2-(((1r,4r)-4-aminocyclohexyl)amino)pyrimidin-4-yl)pyridin-2-yl)oxy)-3-fluoro-5-methylphenyl)propane-1-sulfonamide hydrochloride]: the pIC50 is 7.33.
Regarding `O=S(=O)(CC1CCCC1)Nc1ccc(Oc2ncccc2-c2ccnc(N[C@H]3CCCNC3)n2)c(F)c1F` [Compound 228, (S)-1-cyclopentyl-N-(2,3-difluoro-4-((3-(2-(piperidin-3-ylamino)pyrimidin-4-yl)pyridin-2-yl)oxy)phenyl)methanesulfonamide], the negative logarithm of the IC50 (pIC50) was 8.04.
In the case of `CCC1CCN(c2ccc(Oc3ncccc3-c3ccnc(N[C@H]4CCCNC4)n3)c(F)c2F)C1=O` (single isomer, unassigned) [Compound 248], the negative-log IC50 (pIC50) was 7.35.
In the case of `O=S(=O)(Cc1ccccc1)Nc1cccc(Oc2ncccc2-c2ccnc(N[C@H]3CCCNC3)n2)c1` [Compound 133, (S)-1-Phenyl-N-(3-((3-(2-(piperidin-3-ylamino)pyrimidin-4-yl)pyridin-2-yl)oxy)phenyl)methanesulfonamide hydrochloride], the pIC50 was 6.92.
The molecule `N#Cc1cccc(CS(=O)(=O)Nc2ccc(Oc3ncccc3-c3ccnc(N[C@H]4CCCNC4)n3)c(F)c2F)c1` [Compound 229, (S)-1-(3-cyanophenyl)-N-(2,3-difluoro-4-((3-(2-(piperidin-3-ylamino)pyrimidin-4-yl)pyridin-2-yl)oxy)phenyl)methanesulfonamide] had a negative logarithm of the IC50 (pIC50) of 8.19.
`O=S(=O)(Cc1ccccc1)Nc1cc(F)c(Oc2ncccc2-c2ccnc(N[C@H]3CCCNC3)n2)cc1F` [Compound 107, (S)-N-(2,5-difluoro-4-((3-(2-(piperidin-3-ylamino)pyrimidin-4-yl)pyridin-2-yl)oxy)phenyl)-1-phenylmethanesulfonamide hydrochloride] showed a pIC50 of 8.28.
Under `CCCS(=O)(=O)Nc1c(F)cc(Oc2ncccc2-c2ccnc(N[C@H]3CC[C@H](N(C)C)CC3)n2)c(F)c1F` [Compound 309, N-(4-((3-(2-(((1r,4r)-4-(Dimethylamino)cyclohexyl)amino)pyrimidin-4-yl)pyridin-2-yl)oxy)-2,3,6-trifluorophenyl)propane-1-sulfonamide] stands 8.96; under `Cc1cc(Oc2ncccc2-c2ccnc(N[C@@H]3CNC[C@@H](F)C3)n2)c(F)c(F)c1NS(=O)(=O)Cc1ccccc1` [Compound 280, N-(2,3-Difluoro-4-((3-(2-(((3S,5S)-5-fluoropiperidin-3-yl)amino)pyrimidin-4-yl)pyridin-2-yl)oxy)-6-methylphenyl)-1-phenylmethanesulfonamide], 9.51.
`O=S(=O)(CCC(F)(F)F)Nc1ccc(Oc2ncccc2-c2ccnc(N[C@H]3CCCNC3)n2)cc1F` [Compound 105, (S)-3,3,3-trifluoro-N-(2-fluoro-4-((3-(2-(piperidin-3-ylamino)pyrimidin-4-yl)pyridin-2-yl)oxy)phenyl)propane-1-sulfonamide hydrochloride] had a pIC50 of 7.57.
The molecule `CN(C)S(=O)(=O)Nc1c(F)cc(Oc2ncccc2-c2ccnc(N[C@@H]3CNC[C@@H](F)C3)n2)c(F)c1F` [Compound 266, 4-(2-(4-(Dimethylsulfamoylamino)-2,3,5-trifluoro-phenoxy)-3-pyridyl)-2-(((3S,5S)-5-fluoro-3-piperidyl)amino)pyrimidine] had a pIC50 of 8.07.
Molecule `COCC1CNCC(Nc2nccc(-c3cccnc3Oc3cc(F)c(NS(=O)(=O)Cc4ccccc4)c(F)c3F)n2)C1` (single isomer, unassigned) [Compound 330, 1-Phenyl-N-(2,3,6-trifluoro-4-((3-(2-((5-(methoxymethyl)piperidin-3-yl)amino)pyrimidin-4-yl)pyridin-2-yl)oxy)phenyl)methanesulfonamide] showed a pIC50 of 7.06.
Consider `O=S(=O)(Cc1cccc(Cl)c1)Nc1c(F)cc(Oc2ncccc2-c2ccnc(N[C@@H]3CNC[C@@H](F)C3)n2)c(F)c1F` [Compound 353, 1-(3-Chlorophenyl)-N-[2,3,6-trifluoro-4-[[3-[2-[[(3S,5S)-5-fluoro-3-piperidyl]amino]pyrimidin-4-yl]-2-pyridyl]oxy]phenyl]methanesulfonamide], for which the pIC50 was 9.52.
Under `COCC1CNCC(Nc2nccc(-c3cccnc3Oc3cc(F)c(NS(=O)(=O)Cc4ccccc4)c(F)c3F)n2)C1` (single isomer, unassigned) [Compound 328, 1-Phenyl-N-(2,3,6-trifluoro-4-((3-(2-((5-(methoxymethyl)piperidin-3-yl)amino)pyrimidin-4-yl)pyridin-2-yl)oxy)phenyl)methanesulfonamide] stands 7.96.
